Among the data in ChEMBL document CHEMBL1126617, “A topochemical approach to explain morphiceptin bioactivity” (J Med Chem, 1993) are IC50 values, retold here.

Assay [1] deals with Delta-type opioid receptor (Mus musculus, UniProt P32300). The assay is described as follows: In vitro inhibitory activity against delta opioid receptor using mouse vas deferens (MVD) assay. It counts as tissue-based.
Assay [2] has as its target Mu-type opioid receptor (Cavia porcellus, UniProt P97266). The assay is described as follows: In vitro inhibitory activity against mu opioid receptor using guinea pig ileum (GPI) assay. It counts as tissue-based.

Delta-type opioid receptor, sequence (P32300 whole entry): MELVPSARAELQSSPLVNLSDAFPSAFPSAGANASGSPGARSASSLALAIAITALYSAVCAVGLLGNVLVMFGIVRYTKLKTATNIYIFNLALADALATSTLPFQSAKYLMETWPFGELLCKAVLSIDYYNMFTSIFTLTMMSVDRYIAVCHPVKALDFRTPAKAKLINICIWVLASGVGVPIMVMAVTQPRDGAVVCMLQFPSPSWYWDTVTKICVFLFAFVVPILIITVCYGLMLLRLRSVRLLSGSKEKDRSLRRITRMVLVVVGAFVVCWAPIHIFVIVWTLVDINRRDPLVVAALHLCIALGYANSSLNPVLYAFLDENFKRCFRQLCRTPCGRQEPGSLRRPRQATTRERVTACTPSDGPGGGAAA
Mu-type opioid receptor, sequence (P97266 whole entry): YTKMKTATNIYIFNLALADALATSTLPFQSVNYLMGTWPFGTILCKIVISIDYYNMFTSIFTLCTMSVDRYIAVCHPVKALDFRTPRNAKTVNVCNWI

As for `NC(=O)[C@H]1CCCN1C(=O)[C@H](Cc1ccccc1)NC(=O)[C@@H]1CCCN1C(=O)[C@@H](N)Cc1ccc(O)cc1`, the IC50 stood at 1.51 µM in assay [1] and 0.0287 µM in assay [2]. The corresponding values for `NC(=O)[C@@H]1CCCN1C(=O)[C@@H](Cc1ccccc1)NC(=O)[C@@H]1CCCN1C(=O)[C@@H](N)Cc1ccc(O)cc1` are 0.594 µM and 0.109 µM. The corresponding values for `CN(C(=O)[C@@H]1CCCN1C(=O)[C@@H](N)Cc1ccc(O)cc1)[C@@H](Cc1ccccc1)C(=O)N1CCC[C@@H]1C(N)=O` are 1.25 µM and 0.0207 µM.

With `CN(C(=O)[C@@H]1CCCN1C(=O)[C@@H](N)Cc1ccc(O)cc1)[C@@H](Cc1ccccc1)C(=O)N1CCC[C@H]1C(N)=O`, the IC50 in assay [1] stood at 1.79 µM; in assay [2] it was 0.17 µM. In assay [1], `C[C@H](NC(=O)[C@@H](N)Cc1ccc(O)cc1)C(=O)N[C@@H](Cc1ccccc1)C(=O)N1CCC[C@@H]1C(N)=O` showed a 50% inhibitory concentration (IC50) of more than 100 µM. As for `CN(C(=O)[C@@H]1CCCN1C(=O)[C@@H](N)Cc1ccc(O)cc1)[C@H](Cc1ccccc1)C(=O)N1CCC[C@H]1C(N)=O`, the IC50 was more than 1000 µM in assay [1] and more than 100 µM in assay [2]. For `NC(=O)[C@H]1CCCN1C(=O)[C@@H](Cc1ccccc1)NC(=O)[C@@H]1CCCN1C(=O)[C@@H](N)Cc1ccc(O)cc1` the same measures were 4.81 µM and 0.557 µM. For `C[C@@H](C(=O)N[C@@H](Cc1ccccc1)C(=O)N1CCC[C@@H]1C(N)=O)N(C)C(=O)[C@@H](N)Cc1ccc(O)cc1` the same measures were 0.202 µM and 0.0306 µM. For `NC(=O)[C@@H]1CCCN1C(=O)[C@H](Cc1ccccc1)NC(=O)[C@@H]1CCCN1C(=O)[C@@H](N)Cc1ccc(O)cc1` [MORPHICEPTIN] the same measures were 3.69 µM and 0.552 µM. Take `CN(C(=O)[C@@H]1CCCN1C(=O)[C@@H](N)Cc1ccc(O)cc1)[C@H](Cc1ccccc1)C(=O)N1CCC[C@@H]1C(N)=O`: the concentration for half-maximal inhibition (IC50) worked out at 565 µM in assay [1] and 2.66 µM in assay [2].
